US10689341B2, “Small molecule N-(alpha-peroxy) indole compounds and methods of use” (King Abdullah University of Science and Technology, priority 2016, dated 2020)

Assay: Stability in CDC13 in the NMR tube at room temperature
Assay type: physicochemical
Conditions: decomposed in one day

stability in CDC13: not be stable
SMILES: COc1ccc2c(c1)c(CCNC(C)=O)cn2C(CC(C)C)OOC(C)(C)CC(OC(C)=O)OC(C)=O (stereo not shown) [Compound 7]
